Assay results from the supplement of paper PMC10307832.

Tests used:
Assay in all cases: relative viability (nuclei count vs DMSO), 5 days (fraction); higher = more cells survive
[1] = compound: CC1=CC=C(C=C1)C(=O)CN2C3=C(CCCC3)SC2=N [Pifithrin_alpha] + COc1cc2c(Oc3ccc(NC(=O)C4(C(=O)Nc5ccc(F)cc5)CC4)cc3F)ccnc2cc1OCCCN1CCOCC1 [Foretinib] (partner 0.25 µM)
In short: (§1)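 The day after seeding in 1536-well plates, lung cancer cell lines were treated by pin tool with a single drug, or with a fixed anchor-drug dose together with five library-drug doses (not always all listed) in √10 steps. After 5 days, a combined fix-and-stain solution (final 0.05% Triton X-100, 1% formaldehyde, 1 ug/ml Hoechst) was added. Nuclei counted on 4× images gave relative viability as treated counts over vehicle counts, reported as the median of duplicate plates.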

Axitinib + Luminespib = compound: CNC(=O)c1ccccc1Sc1ccc2c(/C=C/c3ccccn3)n[nH]c2c1 [Axitinib] + CCNC(=O)c1noc(-c2cc(C(C)C)c(O)cc2O)c1-c1ccc(CN2CCOCC2)cc1 [Luminespib] (partner 0.01 µM)
In short: as §1

Axitinib + Foretinib = compound: CNC(=O)c1ccccc1Sc1ccc2c(/C=C/c3ccccn3)n[nH]c2c1 [Axitinib] + COc1cc2c(Oc3ccc(NC(=O)C4(C(=O)Nc5ccc(F)cc5)CC4)cc3F)ccnc2cc1OCCCN1CCOCC1 [Foretinib] (partner 0.25 µM)
In short: as §1

Bemcentinib + AZD7762 = compound: Nc1nc(Nc2ccc3c(c2)CC[C@@H](N2CCCC2)CC3)nn1-c1cc2c(nn1)-c1ccccc1CCC2 [Bemcentinib] + NC(=O)Nc1cc(-c2cccc(F)c2)sc1C(=O)N[C@H]1CCCNC1 [AZD7762] (partner 0.2 µM)
In short: as §1

Row | Cell Line | relative viability ([1]; first compound 1 µM) | relative viability ([1]; first compound 3.162 µM) | relative viability ([1]; first compound 10 µM) | relative viability ([1]; first compound 31.62 µM) | relative viability ([1]; first compound 100 µM) | relative viability (Axitinib + Luminespib; first compound 0.005 µM) | relative viability (Axitinib + Luminespib; first compound 0.01581 µM) | relative viability (Axitinib + Luminespib; first compound 0.05 µM) | relative viability (Axitinib + Luminespib; first compound 0.1581 µM) | relative viability (Axitinib + Luminespib; first compound 0.5 µM) | relative viability (Axitinib + Foretinib; first compound 0.005 µM) | relative viability (Axitinib + Foretinib; first compound 0.01581 µM) | relative viability (Axitinib + Foretinib; first compound 0.05 µM) | relative viability (Axitinib + Foretinib; first compound 0.1581 µM) | relative viability (Axitinib + Foretinib; first compound 0.5 µM) | relative viability (Bemcentinib + AZD7762; first compound 0.04 µM) | relative viability (Bemcentinib + AZD7762; first compound 0.1265 µM) | relative viability (Bemcentinib + AZD7762; first compound 0.4 µM) | relative viability (Bemcentinib + AZD7762; first compound 1.265 µM) | relative viability (Bemcentinib + AZD7762; first compound 4 µM)
1 | A-427 | 0.877 | 1.02 | 1.08 | 0.863 | 1.01 | 0.998 | 1.03 | 1.03 | 0.926 | 0.919 | 1.12 | 1.15 | 1.12 | 0.94 | 1.26 | 0.75 | 0.856 | 0.746 | 0.63 | 0.637
2 | LXF-289 | 1.02 | 1.05 | 0.995 | 0.888 | 1.01 | 0.69 | 0.721 | 0.659 | 0.573 | 0.781 | 1.07 | 0.902 | 0.913 | 0.983 | 1.05 | 1.16 | 1.22 | 1.09 | 1.19 | 1.2
3 | NCI-H1355 | 0.949 | 0.743 | 0.663 | 0.587 | 0.65 | 0.822 | 0.73 | 0.748 | 0.747 | 0.659 | 1.03 | 0.945 | 1.04 | 0.956 | 1.1 | 0.742 | 0.742 | 0.78 | 0.834 | 0.576
4 | NCI-H1437 | 1.4 | 1.33 | 1.21 | 0.794 | 0.93 | 1.12 | 1.1 | 1.07 | 1.16 | 1.08 | 1.3 | 1.22 | 1.28 | 1.13 | 1.25 | 1.09 | 1.12 | 1.13 | 1.15 | 1.09
5 | HCC-366 | 0.896 | 0.906 | 0.915 | – | 0.527 | – | – | – | – | – | 0.949 | 0.958 | 0.865 | 0.966 | 0.977 | 0.253 | 0.382 | 0.248 | 0.163 | 0.208
6 | NCI-H1299 | 1.04 | 1.14 | 1.07 | 0.889 | 1.07 | – | – | – | – | – | 1.06 | 1.04 | 1.08 | 1.08 | 1.24 | – | – | – | – | –
7 | 201T | 0.928 | 0.745 | 0.684 | 0.627 | 0.681 | 1.04 | 1.04 | 1.09 | 0.989 | 1.04 | 1.07 | 1.06 | 0.972 | 1.17 | 1.21 | 0.643 | 0.668 | 0.605 | 0.611 | 0.625
8 | IA-LM | 1.07 | 0.975 | 0.469 | 0.445 | 0.604 | – | – | – | – | – | 1.27 | 1.14 | 1.13 | 1.09 | 1.35 | – | – | – | – | –
9 | NCI-H1734 | 0.868 | 0.825 | 0.814 | 0.763 | 0.793 | 0.19 | 0.221 | 0.212 | 0.2 | 0.191 | 0.928 | 0.853 | 0.923 | 0.944 | 1.08 | 0.516 | 0.611 | 0.613 | 0.518 | 0.441
10 | NCI-H1993 | 0.721 | 0.566 | 0.694 | 0.661 | 0.674 | 1.04 | 0.918 | 0.949 | 0.881 | 0.823 | 0.771 | 0.731 | 0.823 | 0.956 | 0.845 | 0.778 | 1.01 | 1.06 | 0.9 | 0.658
11 | NCI-H2085 | – | 1.11 | 1.07 | 0.78 | 0.844 | 0.451 | 0.389 | 0.404 | 0.502 | 0.415 | 0.979 | 1.05 | 0.884 | 0.9 | 1.07 | 0.956 | 1.03 | 0.863 | 0.767 | 0.748
12 | EBC-1 | 0.0836 | 0.0947 | 0.0856 | 0.0979 | 0.0988 | – | – | – | – | – | 0.104 | 0.116 | 0.0984 | 0.0972 | 0.122 | – | – | – | – | –
13 | COR-L23 | 0.955 | 0.987 | 0.97 | – | 0.928 | 0.667 | 0.614 | 0.744 | 0.631 | 0.749 | 1.1 | 0.953 | 1.13 | 0.948 | 1.02 | – | – | – | – | –
14 | NCI-H1793 | – | 0.539 | 0.61 | 0.642 | 0.483 | 0.148 | 0.23 | 0.16 | 0.187 | 0.169 | 0.851 | 0.597 | 0.764 | 0.65 | 0.687 | 0.617 | 0.498 | 0.407 | 0.19 | 0.23
15 | A549 | 1.1 | 0.958 | 1.1 | 0.874 | 0.959 | – | – | – | – | – | 0.977 | 0.973 | 0.972 | 0.976 | 1.23 | – | – | – | – | –
16 | EPLC-272H | 0.601 | 0.66 | 0.632 | 0.424 | 0.695 | 0.332 | 0.376 | 0.338 | 0.251 | 0.314 | 0.639 | 0.745 | 0.579 | 0.735 | 0.637 | 0.236 | 0.162 | 0.186 | 0.168 | 0.197
17 | NCI-H2009 | 1.19 | 1.26 | 1.18 | 0.829 | 1.05 | 1.11 | 1.12 | 1.02 | 1.07 | 1.16 | 1.21 | 1.23 | 1.23 | 1.27 | 1.08 | – | – | – | – | –
18 | ChaGo-K-1 | 0.917 | 0.985 | 0.871 | 0.828 | 0.814 | 0.591 | 0.703 | 0.44 | 0.495 | 0.533 | 0.961 | 1 | 0.984 | 0.889 | 1 | 0.838 | 0.976 | 0.919 | 0.907 | 0.958
19 | SW 900 | 0.878 | 0.724 | 0.836 | 0.837 | 0.424 | 0.167 | 0.162 | 0.159 | 0.185 | 0.18 | 1.02 | 0.673 | 0.941 | 1.01 | 1.12 | 0.559 | 0.65 | 0.689 | 0.552 | 0.538
